# What was measured:
# ABCG2 [1] = molecular target: T1, ABCG2 (Homo sapiens, UniProt Q9UNQ0); assay: mitoxantrone accumulation ([…]) and 5D3 conformational staining ([…]) in HEK293/ABCG2 cells; format: cell-based
# T1 sequence (Q9UNQ0 1-655): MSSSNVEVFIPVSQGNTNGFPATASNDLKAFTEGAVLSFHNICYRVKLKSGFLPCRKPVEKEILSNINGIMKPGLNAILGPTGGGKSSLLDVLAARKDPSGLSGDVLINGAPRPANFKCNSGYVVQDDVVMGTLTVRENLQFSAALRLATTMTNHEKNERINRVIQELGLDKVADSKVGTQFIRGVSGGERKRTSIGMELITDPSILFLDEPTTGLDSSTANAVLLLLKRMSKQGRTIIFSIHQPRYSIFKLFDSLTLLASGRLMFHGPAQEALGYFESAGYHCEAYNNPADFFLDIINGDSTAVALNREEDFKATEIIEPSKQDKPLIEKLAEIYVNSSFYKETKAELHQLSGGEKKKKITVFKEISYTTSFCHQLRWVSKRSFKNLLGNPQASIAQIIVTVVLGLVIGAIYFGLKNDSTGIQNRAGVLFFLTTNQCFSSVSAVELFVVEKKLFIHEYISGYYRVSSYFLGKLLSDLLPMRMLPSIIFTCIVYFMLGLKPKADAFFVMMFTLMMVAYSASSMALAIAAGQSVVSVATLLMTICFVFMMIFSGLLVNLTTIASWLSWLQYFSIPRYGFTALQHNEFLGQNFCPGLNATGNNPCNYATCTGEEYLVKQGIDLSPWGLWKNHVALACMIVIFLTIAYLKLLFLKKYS
# ABCG2 [2] = molecular target: T1, ABCG2; conditions: hek293/abcg2 inside-out membrane vesicles
# ABCG2 [3] = molecular target: T1, ABCG2; assay: reference inhibitor; mitoxantrone accumulation, 5D3 conformational staining and sensitization IC50 in HEK293/ABCG2 cells; format: cell-based
smiles,measurement,setting,value
CC(C)(C)NC(=O)CSc1nc2ccc(Nc3nc(N4CCOCC4)nc(N4CCOCC4)n3)cc2s1 [C6],mitoxantrone accumulation (3 μM) and 5D3 conformational staining (10 μM) in HEK2,ABCG2 [1],All three analogues had similar activity as PZ-39 in enhancing mitoxantrone accumulation
CC(=O)CSc1nc2ccc(Nc3nc(N4CCOCC4)nc(N4CCOCC4)n3)cc2s1 [C8],mitoxantrone accumulation (3 μM) and 5D3 conformational staining (10 μM) in HEK2,ABCG2 [1],All three analogues had similar activity as PZ-39 in enhancing mitoxantrone accumulation
O=C1c2c(O)ccc(O)c2C(=O)c2c(NCCNCCO)ccc(NCCNCCO)c21 [mitoxantrone],Km,ABCG2 [2],2.3 µM
O=C(CSc1nc2ccc(Nc3nc(Nc4ccccc4)nc(Nc4ccccc4)n3)cc2s1)N1CCCC1 [E2],mitoxantrone accumulation (3 μM) and 5D3 conformational staining (10 μM) in HEK2,ABCG2 [1],All three analogues had similar activity as PZ-39 in enhancing mitoxantrone accumulation
"COc1ccc2c3c([nH]c2c1)[C@H](C=C(C)C)N1C(=O)[C@@H]2CCCN2C(=O)[C@@H]1C3 [FTC, Fumitremorgin C]",IC50 (μM) / Inhibitor+MX ^a,ABCG2 [3],0.387 ± 0.054 µM

# From PMC2682573, “A Novel Two Mode-Acting Inhibitor of ABCG2-Mediated Multidrug Transport and Resistance in Cancer Chemotherapy” (PLoS ONE, 2009)
